Assays:
[1] = system: CYP-induced visceral pain; assay: Cyclophosphamide (CYP)-induced visceral pain model (acute cystitis), von Frey testing; assay type: in vivo, female Sprague-Dawley rats; details: for AUC 1-6 g (allodynia) / Nociceptive threshold: mean ± s.e.m.
[2] = Urine concentration after a single oral dose (methyl cellulose suspension); assay type: in vivo, humans; details: human
[3] = 30 mg/kg p.o., overall 2-24 h after CYP

CC(C)Cc1ccc(C(C)C(=O)O)cc1 (centres unmarked) [Ibuprofen, reference compound]
Effect on nociceptive scores vs vehicle ([1]; 300 mg/kg p.o., all along the observation period (2-24 h)): significantly decreased | Effect on nociceptive threshold vs vehicle ([1]; 300 mg/kg p.o., overall 2-24 h after CYP): significant overall increase

O=C(O)c1nc2ccccc2n([C@H]2C[C@H]3CCC[C@@H](C2)N3C2CC3CCCC(C3)C2)c1=O (some centres unmarked) [compound of formula (IA)]
AUC 1-6 g (allodynia) ([1]; 30 mg/kg p.o., +2 h after CYP): 19.8±6.9 % scores × g | Nociceptive threshold ([1]; 30 mg/kg p.o., +2 h after CYP): 6.6 ± 0.8 g | AUC 1-6 g (allodynia) ([1]; 30 mg/kg p.o., +3 h after CYP): 19.3±6.3 % scores × g | Nociceptive threshold ([1]; 30 mg/kg p.o., +3 h after CYP): 6.3 ± 1.2 g | AUC 1-6 g (allodynia) ([1]; 30 mg/kg p.o., +4 h after CYP): 34.1±7.9 % scores × g | Nociceptive threshold ([1]; 30 mg/kg p.o., +4 h after CYP): 4.8 ± 0.8 g | AUC 1-6 g (allodynia) ([1]; 30 mg/kg p.o., +24 h after CYP): 61.8±15.7 % scores × g | Nociceptive threshold ([1]; 30 mg/kg p.o., +24 h after CYP): 3.7 ± 0.8 g | Effect on nociceptive threshold vs vehicle ([1]; 30 mg/kg p.o., CYP-injected rats, overall 2-24 h): overall inhibitory effect | Effect on nociceptive scores vs vehicle ([1]; 30 mg/kg p.o., from 2 h up to 24 h after CYP): significant decrease | Effect on AUC 1-6 g vs vehicle [1, 3]: overall decrease | Effect on CYP-induced AUC 6-26 g increase (hyperalgesia) vs vehicle [1, 3]: significant overall inhibitory effect | Urine concentration, mean ([2]; 0.2 mg single oral dose, 0 to 8 h): 2311 nM | Urine concentration, mean ([2]; 0.2 mg single oral dose, 8 to 16 h): 394 nM | Urine concentration, mean ([2]; 0.2 mg single oral dose, 16 to 24 h): BQL | Urine concentration, mean ([2]; 0.2 mg single oral dose, 24 to 32 h): BQL | Urine concentration, mean ([2]; 0.2 mg single oral dose, 32 to 40 h): BQL | Urine concentration, mean ([2]; 0.2 mg single oral dose, 40 to 48 h): BQL | Urine concentration, mean ([2]; 0.6 mg single oral dose, 0 to 8 h): 1641 nM | Urine concentration, mean ([2]; 0.6 mg single oral dose, 8 to 16 h): 531 nM | Urine concentration, mean ([2]; 0.6 mg single oral dose, 16 to 24 h): BQL | Urine concentration, mean ([2]; 0.6 mg single oral dose, 24 to 32 h): BQL | Urine concentration, mean ([2]; 0.6 mg single oral dose, 32 to 40 h): BQL | Urine concentration, mean ([2]; 0.6 mg single oral dose, 40 to 48 h): BQL | Urine concentration, mean ([2]; 2 mg single oral dose, 0 to 8 h): 10809 nM | Urine concentration, mean ([2]; 2 mg single oral dose, 8 to 16 h): 1440 nM | Urine concentration, mean ([2]; 2 mg single oral dose, 16 to 24 h): 400 nM | Urine concentration, mean ([2]; 2 mg single oral dose, 24 to 32 h): BQL | Urine concentration, mean ([2]; 2 mg single oral dose, 32 to 40 h): BQL | Urine concentration, mean ([2]; 2 mg single oral dose, 40 to 48 h): BQL | Urine concentration, mean ([2]; 10 mg single oral dose, 0 to 8 h): 30964 nM | Urine concentration, mean ([2]; 10 mg single oral dose, 8 to 16 h): 14181 nM | Urine concentration, mean ([2]; 10 mg single oral dose, 16 to 24 h): 1994 nM | Urine concentration, mean ([2]; 10 mg single oral dose, 24 to 32 h): 535 nM | Urine concentration, mean ([2]; 10 mg single oral dose, 32 to 40 h): 240 nM | Urine concentration, mean ([2]; 10 mg single oral dose, 40 to 48 h): BQL

Reference: US20240269133A1, “METHODS OF TREATING INTERSTITIAL CYSTITIS/BLADDER PAIN SYNDROME” (Purdue Pharma L.P., priority 2021, published 2024)
